From the kinase profiling compilation of Christmann-Franck et al. (2016)

Experiments:
Test in all cases: radiometric filter-binding kinase assay, Kinase HotSpot
Conditions in all cases: compound 0.5 µM; ATP 10 µM
AURKA (human) = AURKA (human) (UniProt O14965)
AURKB (human) = AURKB (human) (UniProt Q96GD4)
CAMK2G (human) = CAMK2G (human) (UniProt Q13555)
CLK4 (human) = CLK4 (human) (UniProt Q9HAZ1)
DAPK3 (human) = DAPK3 (human) (UniProt O43293)
EPHB1 (human) = EPHB1 (human) (UniProt P54762)
ERBB4 (human) = ERBB4 (human) (UniProt Q15303)
FGFR2 (human) = FGFR2 (human) (UniProt P21802)
FGFR3 (human) = FGFR3 (human) (UniProt P22607)
FLT3 (human) = FLT3 (human) (UniProt P36888)
FRK (human) = FRK (human) (UniProt P42685)
GRK4 (human) = GRK4 (human) (UniProt P32298)
GRK7 (human) = GRK7 (human) (UniProt Q8WTQ7)
GSK3B (human) = GSK3B (human) (UniProt P49841)
INSRR (human) = INSRR (human) (UniProt P14616)
IRAK1 (human) = IRAK1 (human) (UniProt P51617)
JAK3 JH1 JH2 (human) = JAK3 JH1 JH2 (human) (UniProt P52333)
MAP3K9 (human) = MAP3K9 (human) (UniProt P80192)
MAPK10 (human) = MAPK10 (human) (UniProt P53779)
MAPK13 (human) = MAPK13 (human) (UniProt O15264)
MAPK14 (human) = MAPK14 (human) (UniProt Q16539)
MAPK3 (human) = MAPK3 (human) (UniProt P27361)
MARK1 (human) = MARK1 (human) (UniProt Q9P0L2)
MARK2 (human) = MARK2 (human) (UniProt Q7KZI7)
MARK3 (human) = MARK3 (human) (UniProt P27448)
MYLK2 (human) = MYLK2 (human) (UniProt Q9H1R3)
PAK6 (human) = PAK6 (human) (UniProt Q9NQU5)
PHKG1 (human) = PHKG1 (human) (UniProt Q16816)
PHKG2 (human) = PHKG2 (human) (UniProt P15735)
PIM2 (human) = PIM2 (human) (UniProt Q9P1W9)
PKN1 (human) = PKN1 (human) (UniProt Q16512)
PLK3 (human) = PLK3 (human) (UniProt Q9H4B4)
PNCK (human) = PNCK (human) (UniProt Q6P2M8)
PRKCB1 (human) = PRKCB1 (human) (UniProt P05771)
PRKCG (human) = PRKCG (human) (UniProt P05129)
PRKCZ (human) = PRKCZ (human) (UniProt Q05513)
PTK2 (human) = PTK2 (human) (UniProt Q05397)
RPS6KA5 KD2 (human) = RPS6KA5 KD2 (human) (UniProt O75582)
SIK2 (human) = SIK2 (human) (UniProt Q9H0K1)
ULK1 (human) = ULK1 (human) (UniProt O75385)
WEE1 (human) = WEE1 (human) (UniProt P30291)
WNK3 (human) = WNK3 (human) (UniProt Q9BYP7)

Chain of EPHB1 (human) (P54762 whole entry, looked up): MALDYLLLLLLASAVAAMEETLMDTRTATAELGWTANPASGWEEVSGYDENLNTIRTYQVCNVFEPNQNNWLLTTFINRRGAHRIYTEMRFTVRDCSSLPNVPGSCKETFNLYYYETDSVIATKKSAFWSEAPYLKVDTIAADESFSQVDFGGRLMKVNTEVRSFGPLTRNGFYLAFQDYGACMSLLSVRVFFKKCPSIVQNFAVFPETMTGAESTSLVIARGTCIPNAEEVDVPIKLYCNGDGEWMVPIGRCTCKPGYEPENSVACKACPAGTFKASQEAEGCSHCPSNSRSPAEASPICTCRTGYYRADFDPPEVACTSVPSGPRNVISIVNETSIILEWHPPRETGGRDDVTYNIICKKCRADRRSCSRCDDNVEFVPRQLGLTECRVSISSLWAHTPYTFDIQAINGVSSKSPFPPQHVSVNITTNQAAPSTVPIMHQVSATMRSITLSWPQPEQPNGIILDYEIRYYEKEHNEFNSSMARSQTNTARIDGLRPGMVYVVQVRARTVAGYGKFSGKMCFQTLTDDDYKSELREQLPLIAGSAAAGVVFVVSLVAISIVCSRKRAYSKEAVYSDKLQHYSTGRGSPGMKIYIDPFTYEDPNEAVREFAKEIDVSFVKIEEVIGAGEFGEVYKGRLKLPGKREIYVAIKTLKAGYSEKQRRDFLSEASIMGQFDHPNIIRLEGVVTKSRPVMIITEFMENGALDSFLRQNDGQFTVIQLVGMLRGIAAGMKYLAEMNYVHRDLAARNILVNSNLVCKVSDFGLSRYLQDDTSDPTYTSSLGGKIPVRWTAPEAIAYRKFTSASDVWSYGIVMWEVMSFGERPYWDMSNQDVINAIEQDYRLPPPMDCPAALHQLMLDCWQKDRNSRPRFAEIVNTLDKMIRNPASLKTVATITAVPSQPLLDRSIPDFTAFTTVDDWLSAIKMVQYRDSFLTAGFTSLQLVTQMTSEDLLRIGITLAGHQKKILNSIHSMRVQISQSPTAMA
Chain of MARK1 (human) (Q9P0L2 whole entry, looked up): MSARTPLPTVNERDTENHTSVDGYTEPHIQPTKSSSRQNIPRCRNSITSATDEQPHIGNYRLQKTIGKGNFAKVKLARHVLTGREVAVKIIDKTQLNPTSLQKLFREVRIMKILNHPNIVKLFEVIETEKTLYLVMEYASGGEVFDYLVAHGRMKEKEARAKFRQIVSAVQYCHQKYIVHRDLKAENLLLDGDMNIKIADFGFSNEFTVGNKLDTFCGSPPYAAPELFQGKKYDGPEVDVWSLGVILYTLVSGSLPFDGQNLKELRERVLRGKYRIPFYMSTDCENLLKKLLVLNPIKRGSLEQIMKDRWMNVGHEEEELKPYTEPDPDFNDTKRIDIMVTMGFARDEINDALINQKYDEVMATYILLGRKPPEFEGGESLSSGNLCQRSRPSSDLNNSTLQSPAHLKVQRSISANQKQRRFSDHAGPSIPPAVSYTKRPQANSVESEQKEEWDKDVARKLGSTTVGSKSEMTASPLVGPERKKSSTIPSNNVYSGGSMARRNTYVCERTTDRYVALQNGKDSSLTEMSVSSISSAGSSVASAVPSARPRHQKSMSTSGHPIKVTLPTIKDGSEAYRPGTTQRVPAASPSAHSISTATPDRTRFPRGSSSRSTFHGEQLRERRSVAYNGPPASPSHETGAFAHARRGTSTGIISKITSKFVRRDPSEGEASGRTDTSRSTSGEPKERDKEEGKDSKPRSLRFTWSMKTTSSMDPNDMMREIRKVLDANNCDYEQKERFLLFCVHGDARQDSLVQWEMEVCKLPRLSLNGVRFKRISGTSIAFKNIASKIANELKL
Chain of MAP3K9 (human) (P80192 whole entry, looked up): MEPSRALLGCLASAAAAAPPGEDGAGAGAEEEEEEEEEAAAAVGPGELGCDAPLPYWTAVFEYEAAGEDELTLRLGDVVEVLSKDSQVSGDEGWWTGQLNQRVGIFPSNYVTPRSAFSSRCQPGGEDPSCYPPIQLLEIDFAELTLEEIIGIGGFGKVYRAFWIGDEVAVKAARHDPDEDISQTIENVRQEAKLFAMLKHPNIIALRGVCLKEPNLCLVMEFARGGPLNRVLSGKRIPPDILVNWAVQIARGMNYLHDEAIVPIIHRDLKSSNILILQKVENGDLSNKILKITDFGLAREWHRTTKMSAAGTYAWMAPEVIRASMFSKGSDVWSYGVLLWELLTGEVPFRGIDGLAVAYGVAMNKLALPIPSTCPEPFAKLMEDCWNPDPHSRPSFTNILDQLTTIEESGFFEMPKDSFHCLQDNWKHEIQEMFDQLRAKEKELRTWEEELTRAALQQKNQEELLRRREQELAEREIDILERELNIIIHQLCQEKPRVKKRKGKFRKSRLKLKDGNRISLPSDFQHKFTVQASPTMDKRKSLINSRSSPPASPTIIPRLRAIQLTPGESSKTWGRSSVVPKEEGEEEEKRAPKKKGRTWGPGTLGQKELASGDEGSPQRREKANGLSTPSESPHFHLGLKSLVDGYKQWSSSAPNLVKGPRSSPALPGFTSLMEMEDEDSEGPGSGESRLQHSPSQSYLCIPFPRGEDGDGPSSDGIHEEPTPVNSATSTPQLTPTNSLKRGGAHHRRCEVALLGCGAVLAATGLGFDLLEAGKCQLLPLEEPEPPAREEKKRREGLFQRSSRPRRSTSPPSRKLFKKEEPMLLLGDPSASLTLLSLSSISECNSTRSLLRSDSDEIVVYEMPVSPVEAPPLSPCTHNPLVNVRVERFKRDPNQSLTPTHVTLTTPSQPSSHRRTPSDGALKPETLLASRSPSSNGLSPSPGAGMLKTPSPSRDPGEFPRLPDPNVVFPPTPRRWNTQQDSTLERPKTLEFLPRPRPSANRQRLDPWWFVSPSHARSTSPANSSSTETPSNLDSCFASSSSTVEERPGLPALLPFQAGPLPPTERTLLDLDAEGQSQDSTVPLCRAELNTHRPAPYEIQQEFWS
Chain of PTK2 (human) (Q05397 whole entry, looked up): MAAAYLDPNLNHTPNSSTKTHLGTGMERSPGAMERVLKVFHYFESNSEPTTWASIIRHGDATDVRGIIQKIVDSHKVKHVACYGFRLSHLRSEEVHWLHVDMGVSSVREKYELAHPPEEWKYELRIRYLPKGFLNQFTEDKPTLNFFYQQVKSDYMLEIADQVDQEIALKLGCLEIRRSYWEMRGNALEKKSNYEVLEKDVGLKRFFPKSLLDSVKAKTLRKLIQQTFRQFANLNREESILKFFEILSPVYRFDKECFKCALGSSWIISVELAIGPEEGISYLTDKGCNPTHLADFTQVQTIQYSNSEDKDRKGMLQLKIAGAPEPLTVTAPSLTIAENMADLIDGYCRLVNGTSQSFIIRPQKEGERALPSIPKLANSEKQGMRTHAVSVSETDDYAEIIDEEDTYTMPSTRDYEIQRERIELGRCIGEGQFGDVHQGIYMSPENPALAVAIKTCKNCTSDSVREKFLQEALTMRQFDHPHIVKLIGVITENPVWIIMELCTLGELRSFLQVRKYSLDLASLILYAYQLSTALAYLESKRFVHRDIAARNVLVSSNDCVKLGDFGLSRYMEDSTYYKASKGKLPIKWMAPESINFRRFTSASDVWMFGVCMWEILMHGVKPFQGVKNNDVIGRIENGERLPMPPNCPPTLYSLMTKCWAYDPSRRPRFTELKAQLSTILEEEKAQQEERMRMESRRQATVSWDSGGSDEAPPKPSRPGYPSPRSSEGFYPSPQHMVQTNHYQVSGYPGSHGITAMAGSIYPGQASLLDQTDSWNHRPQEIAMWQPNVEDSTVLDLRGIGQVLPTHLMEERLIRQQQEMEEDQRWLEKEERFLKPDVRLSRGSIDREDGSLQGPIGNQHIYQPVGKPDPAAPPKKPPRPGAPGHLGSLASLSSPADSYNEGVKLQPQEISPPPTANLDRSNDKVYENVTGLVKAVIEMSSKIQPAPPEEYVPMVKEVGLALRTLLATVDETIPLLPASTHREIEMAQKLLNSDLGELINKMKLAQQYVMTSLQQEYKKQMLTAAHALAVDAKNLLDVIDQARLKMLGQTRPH
Chain of CAMK2G (human) (Q13555 whole entry, looked up): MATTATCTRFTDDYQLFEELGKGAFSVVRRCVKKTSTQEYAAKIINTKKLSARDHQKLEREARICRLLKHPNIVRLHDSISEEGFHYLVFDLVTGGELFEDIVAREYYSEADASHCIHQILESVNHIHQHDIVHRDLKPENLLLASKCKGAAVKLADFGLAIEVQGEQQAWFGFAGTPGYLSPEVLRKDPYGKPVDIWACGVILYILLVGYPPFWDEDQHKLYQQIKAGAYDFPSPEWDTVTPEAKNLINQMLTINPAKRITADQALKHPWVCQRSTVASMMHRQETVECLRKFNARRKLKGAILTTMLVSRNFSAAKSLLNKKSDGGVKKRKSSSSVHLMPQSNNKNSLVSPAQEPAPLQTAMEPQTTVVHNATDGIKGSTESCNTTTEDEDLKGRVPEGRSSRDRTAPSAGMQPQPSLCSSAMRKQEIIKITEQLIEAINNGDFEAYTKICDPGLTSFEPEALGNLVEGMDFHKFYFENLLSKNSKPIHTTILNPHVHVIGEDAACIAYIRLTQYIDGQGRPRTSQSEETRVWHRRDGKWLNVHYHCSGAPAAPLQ
Chain of MYLK2 (human) (Q9H1R3 whole entry, looked up): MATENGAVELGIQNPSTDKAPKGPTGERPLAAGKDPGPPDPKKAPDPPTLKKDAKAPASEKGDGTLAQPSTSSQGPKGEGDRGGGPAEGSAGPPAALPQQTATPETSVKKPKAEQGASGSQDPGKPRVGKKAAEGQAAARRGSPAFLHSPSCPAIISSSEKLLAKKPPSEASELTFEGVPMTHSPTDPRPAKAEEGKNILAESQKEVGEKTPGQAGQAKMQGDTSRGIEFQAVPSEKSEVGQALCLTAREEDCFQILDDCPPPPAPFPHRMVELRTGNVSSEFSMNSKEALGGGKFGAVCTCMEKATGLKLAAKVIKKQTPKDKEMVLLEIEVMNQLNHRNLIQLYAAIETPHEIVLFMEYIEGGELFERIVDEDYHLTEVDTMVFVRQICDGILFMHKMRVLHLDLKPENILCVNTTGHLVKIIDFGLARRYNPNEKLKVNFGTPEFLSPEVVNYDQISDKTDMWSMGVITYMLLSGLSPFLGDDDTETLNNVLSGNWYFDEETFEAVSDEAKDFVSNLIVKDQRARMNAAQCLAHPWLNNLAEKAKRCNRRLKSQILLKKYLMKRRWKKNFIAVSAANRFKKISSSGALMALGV

`CN(C)C[C@H]1CCn2c(c(C3=C(c4cn(C)c5ccccc45)C(=O)NC3=O)c3ccccc32)C1` showed a residual activity (AURKA (human)) of 87.7%, a residual activity (AURKB (human)) of 96.3% and a residual activity (CAMK2G (human)) of 100%. The residual activity (CLK4 (human)) was 111%, the residual activity (DAPK3 (human)) was 95.2% and the residual activity (EPHB1 (human)) was 106%. It also gave a residual activity (ERBB4 (human)) of 84.3%, a residual activity (FGFR2 (human)) of 104% and a residual activity (FGFR3 (human)) of 96.3%. The residual activity (FLT3 (human)) was 37.1%, the residual activity (FRK (human)) was 103% and the residual activity (GRK4 (human)) was 76.4%. For the same compound, the residual activity (GRK7 (human)) was 40%, the residual activity (GSK3B (human)) was 11.2% and the residual activity (INSRR (human)) was 98.7%. For the same compound, the residual activity (IRAK1 (human)) was 127%, the residual activity (JAK3 JH1 JH2 (human)) was 89.4% and the residual activity (MAP3K9 (human)) was 90.8%. It also gave a residual activity (MAPK10 (human)) of 101%, a residual activity (MAPK13 (human)) of 117% and a residual activity (MAPK14 (human)) of 108%. The residual activity (MAPK3 (human)) was 102%, the residual activity (MARK1 (human)) was 92.8% and the residual activity (MARK2 (human)) was 94.9%. For the same compound, the residual activity (MARK3 (human)) was 92.4%, the residual activity (MYLK2 (human)) was 74.2% and the residual activity (PAK6 (human)) was 114%. The residual activity (PHKG1 (human)) was 78.4%, the residual activity (PHKG2 (human)) was 104% and the residual activity (PIM2 (human)) was 102%. It also gave a residual activity (PKN1 (human)) of 7.06%, a residual activity (PLK3 (human)) of 100% and a residual activity (PNCK (human)) of 95.2%. The residual activity (PRKCB1 (human)) was 3.71%, the residual activity (PRKCG (human)) was 6.93% and the residual activity (PRKCZ (human)) was 31%. For the same compound, the residual activity (PTK2 (human)) was 95.9%, the residual activity (RPS6KA5 KD2 (human)) was 24.8% and the residual activity (SIK2 (human)) was 88.8%. For the same compound, the residual activity (ULK1 (human)) was 98.9%, the residual activity (WEE1 (human)) was 101% and the residual activity (WNK3 (human)) was 100%.

Work on `Nc1nccc(-c2c(-c3ccc(F)cc3)ncn2C2CCNCC2)n1` yielded a residual activity (AURKA (human)) of 100%, a residual activity (AURKB (human)) of 103% and a residual activity (CAMK2G (human)) of 93%. It also gave a residual activity (CLK4 (human)) of 96.9%, a residual activity (DAPK3 (human)) of 96.5% and a residual activity (EPHB1 (human)) of 99.9%. It also gave a residual activity (ERBB4 (human)) of 86.8%, a residual activity (FGFR2 (human)) of 104% and a residual activity (FGFR3 (human)) of 100%. It also gave a residual activity (FLT3 (human)) of 90.3%, a residual activity (FRK (human)) of 95.4% and a residual activity (GRK4 (human)) of 96.9%. It also gave a residual activity (GRK7 (human)) of 106%, a residual activity (GSK3B (human)) of 101% and a residual activity (INSRR (human)) of 103%. It also gave a residual activity (IRAK1 (human)) of 114%, a residual activity (JAK3 JH1 JH2 (human)) of 96.9% and a residual activity (MAP3K9 (human)) of 94.5%. It also gave a residual activity (MAPK10 (human)) of 105%, a residual activity (MAPK3 (human)) of 100% and a residual activity (MARK1 (human)) of 97.9%. The residual activity (MARK2 (human)) was 97%, the residual activity (MARK3 (human)) was 103% and the residual activity (MYLK2 (human)) was 103%. For the same compound, the residual activity (PAK6 (human)) was 111%, the residual activity (PHKG1 (human)) was 98.3% and the residual activity (PHKG2 (human)) was 104%. For the same compound, the residual activity (PIM2 (human)) was 100%, the residual activity (PKN1 (human)) was 96.3% and the residual activity (PLK3 (human)) was 97.8%. For the same compound, the residual activity (PNCK (human)) was 94.3%, the residual activity (PRKCB1 (human)) was 91% and the residual activity (PRKCG (human)) was 87.8%. It also gave a residual activity (PRKCZ (human)) of 106%, a residual activity (PTK2 (human)) of 94.1% and a residual activity (RPS6KA5 KD2 (human)) of 97.9%. For the same compound, the residual activity (SIK2 (human)) was 64.7%, the residual activity (ULK1 (human)) was 95.3% and the residual activity (WEE1 (human)) was 106%. It also gave a residual activity (WNK3 (human)) of 95.3%.
